Measurements reported in patent US20230242530A1, “8-(AZETIDIN-1-YL)-[1,2,4]TRIAZOLO[1,5-A]PYRIDINYL COMPOUNDS, COMPOSITIONS AND METHODS OF USE THEREOF” (Genentech, Inc., priority 2016, published 2023).

Legend:
[1] = target: T1, isolated recombinant JAK1 kinase domain (Homo sapiens, UniProt P23458); assay: JAK enzyme assay, JAK1 kinase domain (Caliper LabChip); type: biochemical; details: 1.5 nM JAK1, ATP 25 μM, Morrison tight binding model
T1 construct: isolated recombinant JAK1 and JAK2 kinase domain
T1 sequence (P23458 875-1153 limits assumed): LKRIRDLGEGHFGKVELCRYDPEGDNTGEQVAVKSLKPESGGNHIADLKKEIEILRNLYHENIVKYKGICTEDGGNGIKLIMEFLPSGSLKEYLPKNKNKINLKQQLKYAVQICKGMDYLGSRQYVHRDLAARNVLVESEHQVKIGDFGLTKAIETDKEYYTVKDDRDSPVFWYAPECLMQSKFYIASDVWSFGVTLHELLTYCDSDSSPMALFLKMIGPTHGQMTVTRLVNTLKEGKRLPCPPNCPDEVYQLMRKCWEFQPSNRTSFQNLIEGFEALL
Outline: (§1)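 Recombinant kinase domains phosphorylated a 5-carboxyfluorescein-labelled JAK3-derived peptide for 30 min at 22 °C, and the reaction was stopped with EDTA (50 mM final). Product fraction was measured by Caliper LabChip mobility shift. Ki came from Morrison tight-binding fits corrected for ATP competition (Ki=Ki,app/(1+[ATP]/Km,app)).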

[2] = system: JAK1-dependent STAT6 phosphorylation downstream of IL-13 stimulation in BEAS-2B cells; assay: JAK1 pathway assay in cell lines: IL-13 p-STAT6 BEAS-2B; type: cell-based; details: BEAS-2B human bronchial epithelial cells, 1 hr compound, IL-13 15 min, MSD readout
Outline: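 BEAS-2B cells plated a day ahead in complete growth medium; compounds added 1 hr at 37 °C (0.2% DMSO final), then IL-13 at lot-specific EC90 for 15 min at 37 °C. Phospho-STAT6 in lysates measured by MSD; EC50 is 50% inhibition relative to DMSO control.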

[3] = target: T2, isolated recombinant JAK2 kinase domain (Homo sapiens, UniProt O60674); assay: JAK enzyme assay, JAK2 kinase domain (Caliper LabChip); type: biochemical; details: 0.2 nM JAK2, ATP 25 μM, Morrison tight binding model
T2 construct: isolated recombinant JAK1 and JAK2 kinase domain
T2 sequence (O60674 849-1124 limits assumed): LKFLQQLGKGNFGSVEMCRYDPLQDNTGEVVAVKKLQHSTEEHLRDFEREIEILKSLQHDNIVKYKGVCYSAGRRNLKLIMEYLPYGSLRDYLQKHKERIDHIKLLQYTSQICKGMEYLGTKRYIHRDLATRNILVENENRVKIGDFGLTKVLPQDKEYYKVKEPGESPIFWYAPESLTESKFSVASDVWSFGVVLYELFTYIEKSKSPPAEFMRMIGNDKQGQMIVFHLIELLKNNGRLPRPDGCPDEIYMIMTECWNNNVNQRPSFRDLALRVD
Outline: as §1

SMILES	Ki [1] [nM]	EC50 [2] [nM]	Ki [3] [nM]
CCc1cnn(C2(CC#N)CN(c3cccn4nc(Nc5cnn(CC(=O)N6CCN(CCCC#N)CC6)c5)nc34)C2)c1 [Example 68, 4-[4-[2-[4-[[8-[3-(cyanomethyl)-3-(4-ethylpyrazol-1-yl)azetidin-1-yl]-[1,2,4]triazolo[1,5-a]pyridin-2-yl]amino]pyrazol-1-yl]acetyl]piperazin-1-yl]butanenitrile]	0.3	14	0.5
CCc1cnn(C2(CC#N)CN(c3cccn4nc(Nc5cnn(CC(=O)N6CCC(N(C)CC7(C#N)CC7)CC6)c5)nc34)C2)c1 [Example 45, 1-[[[1-[2-[4-[[8-[3-(cyanomethyl)-3-(4-ethylpyrazol-1-yl)azetidin-1-yl]-[1,2,4]triazolo[1,5-a]pyridin-2-yl]amino]pyrazol-1-yl]acetyl]-4-piperidyl]-methyl-amino]methyl]cyclopropane carbonitrile]	0.3	21	0.8
CCc1cnn(C2(CC#N)CN(c3cccn4nc(Nc5cnn(CC(=O)N6CCN(C7CCOCC7)CC6)c5)nc34)C2)c1 [Example 31, 2-[3-(4-ethylpyrazol-1-yl)-1-[2-[[1-[2-oxo-2-(4-tetrahydropyran-4-ylpiperazin-1-yl)ethyl]pyrazol-4-yl]amino]-[1,2,4]triazolo[1,5-a]pyridin-8-yl]azetidin-3-yl]acetonitrile]	0.4	19	1.1
Cc1nn(C2(CC#N)CN(c3cccn4nc(Nc5cnn(CC(=O)N6CCN(C)CC6)c5)nc34)C2)cc1C1CCCCC1 [Example 120, 2-[3-(4-cyclohexyl-3-methyl-pyrazol-1-yl)-1-[2-[[1-[2-(4-methylpiperazin-1-yl)-2-oxo-ethyl]pyrazol-4-yl]amino]-[1,2,4]triazolo[1,5-a]pyridin-8-yl]azetidin-3-yl]acetonitrile]	0.8	46	6.1
CSc1cccc(C2(CC#N)CN(c3cccn4nc(Nc5cnn(CC(=O)N6CCC(N7CCOCC7)CC6)c5)nc34)C2)c1 [Example 90, 2-[3-(3-methylsulfanylphenyl)-1-[2-[[1-[2-(4-morpholino-1-piperidyl)-2-oxo-ethyl]pyrazol-4-yl]amino]-[1,2,4]triazolo[1,5-a]pyridin-8-yl]azetidin-3-yl]acetonitrile]	0.4	22	0.2
CCc1cnn(C2(CC#N)CN(c3cccn4nc(Nc5cnn(CC(=O)N6CCC(NCC(C)(C)C#N)CC6)c5)nc34)C2)c1 [Example 33, 3-[[1-[2-[4-[[8-[3-(cyanomethyl)-3-(4-ethylpyrazol-1-yl)azetidin-1-yl]-[1,2,4]triazolo[1,5-a]pyridin-2-yl]amino]pyrazol-1-yl]acetyl]-4-piperidyl]amino]-2,2-dimethyl-propanenitrile]	0.3	18	0.2
Cn1cc(Nc2nc3c(N4CC(CC#N)(n5cc(Br)cn5)C4)cccn3n2)cn1 [Example 132, 2-[3-(4-bromopyrazol-1-yl)-1-[2-[(l-methylpyrazol-4-yl)amino]-[1,2,4]triazolo[1,5-a]pyridin-8-yl]azetidin-3-yl]acetonitrile]	0.3	51	0.5
CC(C)Sc1ccc(C2(CC#N)CN(c3cccn4nc(Nc5cnn(CC(=O)N6CCN(C)CC6)c5)nc34)C2)cc1 [Example 16, 2-[3-(4-isopropylsulfanylphenyl)-1-[2-[[1-[2-(4-methylpiperazin-1-yl)-2-oxo-ethyl]pyrazol-4-yl]amino]-[1,2,4]triazolo[1,5-a]pyridin-8-yl]azetidin-3-yl]acetonitrile]	0.6	19	3.7
CN1CCN(C(=O)Cn2cc(Nc3nc4c(N5CC(CC#N)(n6cc(-c7ccccc7F)cn6)C5)cccn4n3)cn2)CC1 [Example 77, 2-[3-[4-(2-fluorophenyl)pyrazol-1-yl]-1-[2-[[1-[2-(4-methylpiperazin-1-yl)-2-oxo-ethyl]pyrazol-4-yl]amino]-[1,2,4]triazolo[1,5-a]pyridin-8-yl]azetidin-3-yl]acetonitrile]	0.2	17	0.6
Cc1ccccc1-c1cnn(C2(CC#N)CN(c3cccn4nc(Nc5cnn(CC(=O)N6CCC(NCC7(C#N)CC7)CC6)c5)nc34)C2)c1 [Example 118, 1-[[[1-[2-[4-[[8-[3-(cyanomethyl)-3-[4-(o-tolyl)pyrazol-1-yl]azetidin-1-yl]-[1,2,4]triazolo[1,5-a]pyridin-2-yl]amino]pyrazol-1-yl]acetyl]-4-piperidyl]amino]methyl]cycl opropanecarbonitrile]	1.1	99	7.3
N#CCC1(n2cc(C(F)(F)F)cn2)CN(c2cccn3nc(Nc4cnn(CC(=O)N5CCN(C6COC6)CC5)c4)nc23)C1 [Example 97, 2-[1-[2-[[1-[2-[4-(oxetan-3-yl)piperazin-1-yl]-2-oxo-ethyl]pyrazol-4-yl]amino]-[1,2,4]triazolo[1,5-a]pyridin-8-yl]-3-[4-(trifluoromethyl)pyrazol-1-yl]azetidin-3-yl]acetonitrile]	0.5	51	0.8
CCc1cnn(C2(CC#N)CN(c3cccn4nc(Nc5ccc(C(=O)N6CC(C(=O)N7CCN(C)CC7)C6)cc5)nc34)C2)c1 [Example 65, 2-[3-(4-ethylpyrazol-1-yl)-1-[2-[4-[3-(4-methylpiperazine-1-carbonyl)azetidine-1-carbonyl]anilino]-[1,2,4]triazolo[1,5-a]pyridin-8-yl]azetidin-3-yl]acetonitrile]	0.5	86	1.3
CN1CCN(C(=O)Cn2cc(Nc3nc4c(N5CC(CC#N)(c6cccc(Cl)c6)C5)cccn4n3)cn2)CC1 [Example 35, 2-[3-(3-chlorophenyl)-1-[2-[[1-[2-(4-methylpiperazin-1-yl)-2-oxo-ethyl]pyrazol-4-yl]amino]-[1,2,4]triazolo[1,5-a]pyridin-8-yl]azetidin-3-yl]acetonitrile]	0.8	39	2.8
CN1CCN(C(=O)Cn2cc(Nc3nc4c(N5CC(CC#N)(n6cc(C7CCCCC7)cn6)C5)cccn4n3)cn2)CC1 [Example 55]	1	137	5.7
CCc1cnn(C2(C(C)C#N)CN(c3cccn4nc(Nc5cnn(CC(=O)N6CCN(C)CC6)c5)nc34)C2)c1 (stereo not drawn) [Example 54, 2-[3-(4-ethylpyrazol-1-yl)-1-[2-[[1-[2-(4-methylpiperazin-1-yl)-2-oxo-ethyl]pyrazol-4-yl]amino]-[1,2,4]triazolo[1,5-a]pyridin-8-yl]azetidin-3-yl]propanenitrile]	1	231	2.8
N#CCC1(c2cccc(Cl)c2)CN(c2cccn3nc(Nc4cnn(CC(=O)N5CCC(NC6COC6)CC5)c4)nc23)C1 [Example 93, 2-[3-(3-chlorophenyl)-1-[2-[[1-[2-[4-(oxetan-3-ylamino)-1-piperidyl]-2-oxo-ethyl]pyrazol-4-yl]amino]-[1,2,4]triazolo[1,5-a]pyridin-8-yl]azetidin-3-yl]acetonitrile]	0.4	79	0.7
Cc1ccccc1-c1cnn(C2(CC#N)CN(c3cccn4nc(Nc5cnn(CC(=O)N6CCC(N(C)C7COC7)CC6)c5)nc34)C2)c1 [Example 124]	2	85	3.8
CN(CC1(C#N)CC1)C1CCN(C(=O)Cn2cc(Nc3nc4c(N5CC(CC#N)(n6cc(C(F)(F)F)cn6)C5)cccn4n3)cn2)CC1 [Example 109, 1-[[[1-[2-[4-[[8-[3-(cyanomethyl)-3-[4-(trifluoromethyl)pyrazol-1-yl]azetidin-1-yl]-[1,2,4]triazolo[1,5-a]pyridin-2-yl]amino]pyrazol-1-yl]acetyl]-4-piperidyl]-methyl-amino]methyl]cyclopropane carbonitrile]	0.5	58	0.4
CN1CCN(C(=O)Cn2cc(Nc3nc4c(N5CC(CC#N)(c6ccc(Cl)c(F)c6)C5)cccn4n3)cn2)CC1 [Example 23, 2-[3-(4-chloro-3-fluoro-phenyl)-1-[2-[[1-[2-(4-methylpiperazin-1-yl)-2-oxo-ethyl]pyrazol-4-yl]amino]-[1,2,4]triazolo[1,5-a]pyridin-8-yl]azetidin-3-yl]acetonitrile]	0.7	40	6.1
N#CCC1(c2cccc(Cl)c2)CN(c2cccn3nc(Nc4cnn(CC(=O)N5CCN(CCN6CCOCC6)CC5)c4)nc23)C1 [Example 82, 2-[3-(3-chlorophenyl)-1-[2-[[1-[2-[4-(2-morpholinoethyl)piperazin-1-yl]-2-oxo-ethyl]pyrazol-4-yl]amino]-[1,2,4]triazolo[1,5-a]pyridin-8-yl]azetidin-3-yl]acetonitrile]	0.2	22	0.2
CCc1cnn(C2(CC#N)CN(c3cccn4nc(Nc5ccc(C(=O)N6CCN(C)CC6)c(OC)c5)nc34)C2)c1 [Example 106, 2-[3-(4-ethylpyrazol-1-yl)-1-[2-[3-methoxy-4-(4-methylpiperazine-1-carbonyl)anilino]-[1,2,4]triazolo[1,5-a]pyridin-8-yl]azetidin-3-yl]acetonitrile]	0.5	40	1.3
